# Measurements from patent US10881645B2, “Methods for controlling blood pressure and reducing dyspnea in heart failure” (Chiesi Farmaceutici S.p.A., priority 2012, dated 2021).
# Columns and labels:
# [1] = in vivo; cited from earlier work
# [2] = test system: AHF patients with SBP of ≥160 mmHg; assay: Safety analyses of the AHF trial (hypotension, adverse events, deaths)
# Experimental: (§1) A randomized open label 13-center trial enrolled AHF patients with SBP of ≥160 mmHg, sitting dyspnea score ≥50 on a 100 mm VAS, and a physician's clinical diagnosis of AHF with pulmonary congestion by chest auscultation.
# (§2) If the target blood pressure range was not reached within 30 minutes, or not maintained thereafter, alternative antihypertensive agents were allowed per physician discretion, with or without continuation of the study drug.
# (§3) Two populations were analyzed. The “safety” population included all patients receiving any study drug, and was used for all safety analyses.
# Historical ejection fraction data was recorded when available.
# [3] = test system: AHF patients with SBP of ≥160 mmHg; assay: Randomized open label 13-center trial: blood pressure control, clevidipine vs standard of care; assay type: in vivo, human
# Experimental: as §1, §2, §3
# [4] = test system: AHF patients with SBP of ≥160 mmHg; assay: Dyspnea assessment by 100 mm VAS, VMAC scale and PDA; assay type: in vivo, human
# Experimental: Dyspnea was assessed by a 100 mm VAS, in which a score of 0 was “no dyspnea” and a score of 100 represented “worst possible dyspnea.” Dyspnea was evaluated immediately prior to study drug administration, and at 15, 30, 45, 60, 120, 360 and 720 minutes afterward. In addition, the Vasodilation in the Management of Acute Congestive Heart Failure (VMAC) scale, a relative 7 point Likert score, and the Provocative Dyspnea Assessment (PDA) (Pang et al, Eur Heart J2008, 29) were both performed in the seated and supine positions and recorded.
# [5] = AHF population, 30-minute target SBP range
compound,measurement,setting,value
CCCC(=O)OCOC(=O)C1=C(C)NC(C)=C(C(=O)OC)C1c1cccc(Cl)c1Cl (stereo not drawn) [clevidipine],Half-life,[1],about 1 minute
same,Duration of SBP <90 mmHg,"[2]; human, in vivo",3.3 min
same,Patients who exceeded their lower target blood pressure range limit,"[2]; human, in vivo",15 patients
same,"Patients with at least one related TEAE, %","[2]; human, in vivo",9.8%
same,Proportion of time that SBP was <90 mmHg while on study drug,"[2]; human, in vivo",2.5%
same,"SBP <90 mmHg occurred, % of patients","[2]; human, in vivo",5.9%
same,"SBP <90 mmHg occurred, patients","[2]; human, in vivo",3 patients
same,"Study drug related TEAE: Abdominal discomfort, %","[2]; human, in vivo",2.0%
same,"Study drug related TEAE: Abdominal pain, %","[2]; human, in vivo",2.0%
same,"Study drug related TEAE: Blurred vision, %","[2]; human, in vivo",2.0%
same,"Study drug related TEAE: Flushing, %","[2]; human, in vivo",2.0%
same,"Study drug related TEAE: Headache, %","[2]; human, in vivo",2.0%
same,"Study drug related TEAE: Myalgia, %","[2]; human, in vivo",2.0%
same,"Study drug related TEAE: Nausea, %","[2]; human, in vivo",2.0%
same,"Study drug related TEAE: Ventricular tachycardia, %","[2]; human, in vivo",2.0%
same,Incidence of serious adverse events,"[2]; human, in vivo, 30 days",23.5%
same,Mean by which the lower target limit was exceeded,[2]; in vivo,8.7 mmHg
same,Mean heart rate change from baseline to 30 minutes,[2]; in vivo,2.6 bpm
same,"Symptomatic hypotension, patients",[2]; in vivo,one
same,Patients expired within 30 days of treatment,[2]; none during study drug administration,3 patients
same,"Target blood pressure range achieved, % of patients",[3]; [5],70.5%
same,"Target blood pressure range achieved, patients/total",[3]; [5],31/44
same,"AUC above the target blood pressure, median",[3]; in vivo,327 mmHg×min/h
same,"AUC below the target blood pressure, median",[3]; in vivo,0 mmHg×min/h
same,"AUC outside the target blood pressure, median",[3]; in vivo,379 mmHg×min/h
same,Patients requiring additional antihypertensives,[3]; in vivo,15.9%
same,"Rate of being within, but not below, the target blood pressure range",[3]; in vivo,45.5%
same,Median time to reach target blood pressure range,[3]; patients in which the target range was achieved,15 min
same,Mean VAS decrease from baseline,"[4]; at 45 minutes, 100 mm dyspnea VAS",37.1 mm
same,Effect on dyspnea compared with nicardipine,[4]; in vivo,significantly greater than the effect of nicardipine on dyspnea
same,VAS dyspnea scores over time (treatment×time effect),[4]; vs SOC,decreased more from baseline with clevidipine than SOC
same,VMAC and PDA scores,[4]; vs SOC,non-significant trends toward greater improvement with clevidipine than SOC
O=[N+]([O-])OCC(CO[N+](=O)[O-])O[N+](=O)[O-] [nitroglycerin],"Speed of VAS improvement, SOC subsets","[4]; FIG. 2D, compared with clevidipine",neither nitroglycerin nor nicardipine improved VAS as quickly as clevidipine
